According to patent US11801252B2, “Pharmaceutical composition” (Jiangsu Hengrui Medicine Co., Ltd., priority 2021, dated 2023):
Where “and” joins values, the source holds several entries; their conditions need not be identical. Equal entries are not always repeated. Where two headings read alike, the source gives them in different places.

Test: In vivo pharmacokinetics study in healthy subjects, 75-450 mg single dose, fasting (Test Example 2)
Set-up: species or system human (healthy male subjects)
Conditions: for CLz/F of SNAC / t1/2z of SNAC / λz of SNAC / AUC—% Extrap of SNAC / MRT last / MRT inf / AUC(0-inf) / Cmax / AUC(0-t) / Vd/F / Tmax: single oral, fasting, healthy male subjects; for CLz/F of SNAC / t1/2z of SNAC / λz of SNAC / AUC—% Extrap of SNAC / MRT last / MRT inf / AUC(0-inf) / Cmax / AUC(0-t) / Vd/F: Mean ± SD; for MRT last / MRT inf / AUC(0-inf) / Cmax / AUC(0-t) / Vd/F / Tmax: human; for MRT last: read-out: MRT0-t of SNAC; for MRT inf: read-out: MRT0-∞ of SNAC; for AUC(0-inf): read-out: AUC0-∞ of SNAC; for AUC(0-t): read-out: AUC0-t of SNAC; for Vd/F: read-out: Vz/F of SNAC; for Tmax: median
Description: To study the pharmacokinetic characteristics of 75 mg, 150 mg, 300 mg and 450 mg doses of abiraterone acetate tablets in healthy subjects after a single oral administration under fasting state.
A single-center, open-label, sequential trial design was applied. A total of 16 healthy male subjects were planned to be enrolled in the study, who entered the four dose groups sequentially and the washout period of each dose group was seven days. Blood samples were collected at a series of time points, and safety test was performed. The blood concentration of abiraterone at different time points after dosing was determined by HPLC-MS/MS. Pharmacokinetic parameters were calculated using non-compartmental model and statistically analyzed.
The subjects were admitted to the ward before dinner on the day before the administration of each studied dose. […] They were fasting for at least 10 hours before dosing. According to the trial protocol, subjects were given a single oral administration of the investigational drug, abiraterone acetate tablets, 75 mg (split 150 mg tablet along the score line into half a tablet), 150 mg (150 mg×1 tablet), 300 mg (150 mg×2 tablets) and 450 mg (150 mg×3 tablets) with 240 mL water under fasting state in the morning on the day of trial of each dose group. Liquid was prohibited before administration and within 1 h after administration, and standard lunch and dinner (a standardized light diet) were taken about 4 and 10 h after administration.
Test Formulation (T): Abiraterone acetate tablets (Formulation 5), specification: 150 mg.
PKPS (PKPS, all enrolled in the group and receiving the study drug, at least one subject with analyzable PK parameters during the trial) was used for the statistical analysis of pharmacokinetic parameters.
The linearity between AUC and Cmax and the administration dose was analyzed by confidence interval method, and linear regression analysis was performed on the AUC and Cmax after natural logarithmic transformation respectively and the administration dose, to observe the slope of the linear regression equation and 90% confidence interval.

[1] = after Formulation 5, dose group A 75 mg (equal SNAC content), N = 16
[2] = after Formulation 5, dose group B 150 mg (equal SNAC content), N = 15
[3] = after Formulation 5, dose group C 300 mg (equal SNAC content), N = 15
[4] = after Formulation 5, dose group D 450 mg (equal SNAC content), N = 15
[5] = dose range 75-450 mg of test formulation, confidence interval method, N = 16
[6] = blood, after Formulation 5, dose group A 75 mg (equal SNAC content), N = 16
[7] = blood, after Formulation 5, dose group B 150 mg (equal SNAC content), N = 15
[8] = blood, after Formulation 5, dose group C 300 mg (equal SNAC content), N = 15
[9] = blood, after Formulation 5, dose group D 450 mg (equal SNAC content), N = 15
[10] = plasma, after Formulation 5, dose group A 75 mg (equal SNAC content), N = 16
[11] = plasma, after Formulation 5, dose group B 150 mg (equal SNAC content), N = 15
[12] = plasma, after Formulation 5, dose group C 300 mg (equal SNAC content), N = 15
[13] = plasma, after Formulation 5, dose group D 450 mg (equal SNAC content), N = 15

O=C([O-])CCCCCCCNC(=O)c1ccccc1O.[Na+] [SNAC, sodium 8-(salicylamido)caprylate]
CLz/F of SNAC [1]: 2.66 ×10^2 L · h^−1 and 2.66 ± 0.64 ×10^2 L · h^−1
t1/2z of SNAC [1]: 3.53 h and 3.53 ± 2.54 h
λz of SNAC [1]: 0.28 ± 0.14 h⁻¹
AUC—% Extrap of SNAC [2]: 0.63 ± 0.62%
CLz/F of SNAC [2]: 2.36 ×10^2 L · h^−1 and 2.36 ± 0.62 ×10^2 L · h^−1
t1/2z of SNAC [2]: 2.94 h and 2.94 ± 1.39 h
λz of SNAC [2]: 0.29 ± 0.14 h⁻¹
AUC—% Extrap of SNAC [3]: 0.95 ± 0.91%
CLz/F of SNAC [3]: 2.22 ×10^2 L · h^−1 and 2.22 ± 0.51 ×10^2 L · h^−1
t1/2z of SNAC [3]: 5.35 h and 5.35 ± 3.92 h
λz of SNAC [3]: 0.19 ± 0.11 h⁻¹
AUC—% Extrap of SNAC [4]: 0.50 ± 0.44%
CLz/F of SNAC [4]: 2.22 ×10^2 L · h^−1 and 2.22 ± 0.51 ×10^2 L · h^−1
t1/2z of SNAC [4]: 4.88 h and 4.88 ± 2.37 h
λz of SNAC [4]: 0.18 ± 0.09 h⁻¹
Slope of the linear regression equation (β), LnAUC0-t of SNAC vs dose [5]: 1.10
Slope of the linear regression equation (β), LnAUC0-∞ of SNAC vs dose [5]: 1.10
Slope of the linear regression equation (β), LnCmax of SNAC vs dose [5]: 1.00
MRT last [6]: 1.32 ± 0.52 h
MRT inf [6]: 1.58 ± 0.76 h
MRT last [7]: 1.21 ± 0.48 h
MRT inf [7]: 1.32 ± 0.5 h
MRT last [8]: 1.28 ± 0.36 h
MRT inf [8]: 1.55 ± 0.54 h
AUC(0-inf) [9]: 2130 ± 491 ng·h/mL
MRT last [9]: 1.4 ± 0.53 h
MRT inf [9]: 1.53 ± 0.51 h
Cmax [10]: 407 ng/mL
AUC(0-t) [10]: 291 ng·h/mL
AUC(0-inf) [10]: 295 ± 61.4 ng·h/mL
Vd/F [10]: 1280 L
Cmax [11]: 977 ng/mL
AUC(0-t) [11]: 668 ng·h/mL
AUC(0-inf) [11]: 672 ± 152 ng·h/mL
Vd/F [11]: 1010 L
Tmax [11]: 0.5 h
Cmax [12]: 1870 ng/mL
AUC(0-inf) [12]: 1410 ± 285 ng·h/mL
Vd/F [12]: 1740 L
Tmax [12]: 0.5 h
Cmax [13]: 2460 ng/mL
AUC(0-t) [13]: 2120 ng·h/mL
Vd/F [13]: 1520 L
Tmax [13]: 0.5 h
